The source of these data is publication PMC6770071, “XIAP as a Target of New Small Organic Natural Molecules Inducing Human Cancer Cell Death” (Cancers, 2019).

The melting point is the temperature, or range, at which the solid turns liquid.

With `CCCCCCCC/C=C/CCc1cc(O)c(O)cc1O` [Eriopodol C, (E)-5-(dodec-3′-enyl)benzene-1,2,4-triol], the melting point was 138.5 °C.
